Measurements: patent US8748410B2, “Methods of treating aneurysm” (Wisconsin Alumni Research Foundation, priority 2010, dated 2014)

What was measured:
[1] = tested on: calcium chloride induced AAA (CaCl2 AAA); test: calcium chloride induced AAA in mouse, aneurysm formation; type: in vivo; conditions: mice, 1.25 mg/kg i.v., after 7 days
Description: FIG. 2 illustrates the effect of OLCs inhibition on mouse AAA. Representative pictures of CaCl2 AAA with intravenous (“i.v.”) saline or bisphosphonate injection. Fold increase of the maximum size 7 days after the treatment was shown. n=3, P<0.05. Initially, the inventors identified robust calcification in human AAA samples. The inventors have also identified the existence of OLCs in the medial layer of aneurismal aorta, which were barely detected in age matched aortic tissues from autopsy and stenotic disease both by tartrate-resistant acid phosphatase (“TRAP”) staining, a conventional staining for osteoclast, and immunohistochemistry for osteoclast marker, TRAP (see FIG. 1). The inventors also have identified calcification and OLCs in experimental calcium chloride induced AAA (CaCl2 AAA) in mouse. […] (see FIG. 2) The dose of pamidronate was equivalent to FDA approved dose of pamidronate for osteolytic bone lesions (90 mg/body).

[2] = tested on: pre-existing (induced) AAAs; test: pre-existing (induced) AAAs in mice, delayed treatment; type: in vivo; conditions: weekly injection started 7 days after aneurysm induction, over 5 weeks vs. saline control
Method: In addition, the inventors have extended their studies to cover the other major subclass of bisphosphonates (i.e., non-nitrogenous bisphosphonates) by studying the effect of etidronate (7.5 mg/kg i.v.) on aneurysm formation over 7 days (see FIG. 3B). The dose of etidronate was equivalent to FDA approved dose for Paget's disease (5-10 mg/kg). […] The bisphosphonate treatment corresponding to the data in FIG. 3A was started 1 week post surgery. The bisphosphonate treatments resulting in the data shown in FIGS. 4 (pamidronate) and 5 (etidronate) differed from the previous treatment in that they included weekly bisphosphonate administration immediately after surgery through 6 weeks post surgery.

## NCCC(O)(P(=O)(O)O)P(=O)(O)O [pamidronate]
[1]
  inhibition of aneurysm formation: apparently complete inhibition of aneurysm formation
[2]
  further growth of the aneurysm: immediately halted further growth of the aneurysm
